The source of these data is PubChem BioAssay AID540323 (Johns Hopkins Ion Channel Center, 2011).

What is called IC50 is the concentration needed to halve the response being measured.

The source made the active and inactive calls.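 The calls were made as follows: active = peak hERG channel inhibition above 30% at some tested dose, together with a fitted dose response curve; inactive = no hERG inhibition at any dose, or no curve.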

For one experiment, the target named is Voltage-gated inwardly rectifying potassium channel KCNH2 (Homo sapiens) (UniProt Q12809). The experiment is described as follows: KCNH2 potassium channel blockade – FluxOR Tl flux, hERG cells, CRC 2, selectivity assay for KCNK9 inhibitor project, SAR follow-up (AID 540323). The note with it: hERG-expressing cells, FluxOR thallium flux fluorescence; at 30 µM (top of the series); test wells contain dofetilide at its IC70.
Voltage-gated inwardly rectifying potassium channel KCNH2 (Homo sapiens), sequence (Q12809 whole entry, looked up): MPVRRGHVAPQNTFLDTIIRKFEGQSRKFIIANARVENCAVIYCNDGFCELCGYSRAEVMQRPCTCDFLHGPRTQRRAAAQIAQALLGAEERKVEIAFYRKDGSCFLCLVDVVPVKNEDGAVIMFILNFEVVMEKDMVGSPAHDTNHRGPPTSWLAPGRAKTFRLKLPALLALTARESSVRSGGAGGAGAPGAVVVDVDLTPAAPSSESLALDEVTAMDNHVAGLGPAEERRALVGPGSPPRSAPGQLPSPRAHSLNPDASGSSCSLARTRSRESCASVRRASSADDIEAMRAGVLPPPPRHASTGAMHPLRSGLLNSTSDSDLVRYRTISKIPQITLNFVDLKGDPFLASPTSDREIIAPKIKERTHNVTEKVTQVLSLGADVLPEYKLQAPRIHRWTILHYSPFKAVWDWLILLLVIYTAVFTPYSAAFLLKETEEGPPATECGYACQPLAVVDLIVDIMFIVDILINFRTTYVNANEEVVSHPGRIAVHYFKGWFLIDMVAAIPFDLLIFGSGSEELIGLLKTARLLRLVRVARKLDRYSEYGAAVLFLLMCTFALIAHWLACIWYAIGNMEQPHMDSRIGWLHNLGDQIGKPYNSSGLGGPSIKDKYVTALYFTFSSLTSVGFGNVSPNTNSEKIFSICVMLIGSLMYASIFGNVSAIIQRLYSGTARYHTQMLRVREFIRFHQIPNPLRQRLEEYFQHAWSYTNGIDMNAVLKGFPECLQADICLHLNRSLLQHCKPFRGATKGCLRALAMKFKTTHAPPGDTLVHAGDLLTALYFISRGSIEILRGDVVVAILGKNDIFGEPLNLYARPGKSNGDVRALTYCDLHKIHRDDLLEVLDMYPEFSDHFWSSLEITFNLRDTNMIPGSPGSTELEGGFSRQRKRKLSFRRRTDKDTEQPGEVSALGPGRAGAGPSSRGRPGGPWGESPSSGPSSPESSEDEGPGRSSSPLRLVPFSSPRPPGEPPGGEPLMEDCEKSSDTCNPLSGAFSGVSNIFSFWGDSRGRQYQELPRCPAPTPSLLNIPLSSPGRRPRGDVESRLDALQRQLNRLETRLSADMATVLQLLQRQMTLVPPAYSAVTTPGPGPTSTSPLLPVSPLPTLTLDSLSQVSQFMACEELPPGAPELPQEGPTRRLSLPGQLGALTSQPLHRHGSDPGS
As to `CCOc1ccccc1C(=O)Nc1cccc(NC(=O)c2cccc(C)c2)c1`, the “fluorescence ratio, lower = inhibition” value is “inactive”.

Consider `CCOc1ccccc1NC(=O)c1cccc(NC(=O)c2cccc(C)c2)c1`, for which the “fluorescence ratio, lower = inhibition” value is “inactive”.

For the compound `O=C(Nc1cccc(NC(=O)c2ccncc2)c1)c1ccccc1`, the “fluorescence ratio, lower = inhibition” value was “inactive”.

`COc1ccccc1C(=O)Nc1cccc(NC(=O)c2ccccc2C)c1`: the “fluorescence ratio, lower = inhibition” value is “inactive”.

For the compound `CC(c1ccccc1)n1c(-c2ccco2)n[nH]c1=S` (stereo not drawn), the “fluorescence ratio, lower = inhibition” value was “inactive”.

For the compound `O=C(Nc1cccc(NC(=O)c2ccccc2C(F)(F)F)c1)c1ccccc1`, the “fluorescence ratio, lower = inhibition” value is “inactive”.

With `Cc1cccc(C(=O)Nc2cccc(NC(=O)c3ccc(C(F)(F)F)cc3)c2)c1`, the “fluorescence ratio, lower = inhibition” value is “inactive”.

Consider `CC(C1CC2CCC1C2)n1c(-c2ccco2)n[nH]c1=S` (stereo not drawn), for which the “fluorescence ratio, lower = inhibition” value is “inactive”.

As for `O=C(Nc1cccc(NC(=O)c2cccs2)c1)c1ccccc1`, the “fluorescence ratio, lower = inhibition” value was “inactive”.

As to `CCOc1ccccc1NC(=O)c1cccc(NC(=O)c2ccccc2Cl)c1`, the “fluorescence ratio, lower = inhibition” value is “inactive”.

For `O=C(Nc1cccc(NC(=O)c2cccc(Cl)c2)c1)c1ccccc1`, the “fluorescence ratio, lower = inhibition” value was “inactive”.

For `Cc1ccc(-c2n[nH]c(=S)n2C(C)C2CC3CCC2C3)cc1` (stereo not drawn), the “fluorescence ratio, lower = inhibition” value was “inactive”.

On to `O=C(Nc1cccc(NC(=O)c2ccccn2)c1)c1ccccc1`, for which the “fluorescence ratio, lower = inhibition” value was “inactive”.

`Cc1cccc(C(=O)Nc2ccccc2NC(=O)c2ccccc2)c1`: the “fluorescence ratio, lower = inhibition” value was “inactive”.

For the compound `CC(C1CC2CCC1C2)n1c(-c2ccccc2)n[nH]c1=S` (stereo not drawn), the “fluorescence ratio, lower = inhibition” value is “inactive”.

With `COc1ccc(C(=O)Nc2cccc(NC(=O)c3ccccc3)c2)cc1`, the “fluorescence ratio, lower = inhibition” value is “inactive”.

Regarding `CCOc1ccccc1NC(=O)c1cccc(NC(=O)CC2CCCCC2)c1`, the “fluorescence ratio, lower = inhibition” value was “inactive”.

Take `CC(C)(C)c1ccc(C(=O)Nc2cccc(NC(=O)c3ccccc3)c2)cc1`: the “fluorescence ratio, lower = inhibition” value was “inactive”.

With `CCOc1ccccc1NC(=O)c1cccc(NC(=O)c2cccc(Cl)c2)c1`, the “fluorescence ratio, lower = inhibition” value is “inactive”.

Turning to `Cc1ccccc1-c1n[nH]c(=S)n1C(C)C1CC2CCC1C2` (stereo not drawn), the “fluorescence ratio, lower = inhibition” value is “inactive”.

For `Cc1cccc(C(=O)Nc2cccc(NC(=O)c3ccccc3OCC(C)C)c2)c1`, the “fluorescence ratio, lower = inhibition” value was “inactive”.

Regarding `O=C(Nc1cccc(NC(=O)C2CCCCC2)c1)c1ccccc1`, the “fluorescence ratio, lower = inhibition” value is “inactive”.

Regarding `COc1ccccc1C(=O)Nc1cccc(NC(=O)c2ccccc2C(C)C)c1`, the “fluorescence ratio, lower = inhibition” value was “inactive”.

For the compound `Cc1cccc(-c2n[nH]c(=S)n2C(C)C2CC3CCC2C3)c1` (stereo not drawn), the “fluorescence ratio, lower = inhibition” value was “inactive”.

Take `CCOc1ccccc1C(=O)Nc1cccc(NC(=O)C2CCCC2)c1`: the “fluorescence ratio, lower = inhibition” value was “inactive”.

Turning to `CCOc1ccccc1NC(=O)c1cccc(NC(=O)C2CC2)c1`, the “fluorescence ratio, lower = inhibition” value was “inactive”.

For `CCOc1ccccc1NC(=O)c1cccc(NC(=O)c2ccc(Cl)cc2)c1`, the “fluorescence ratio, lower = inhibition” value is “inactive”.

On to `COc1ccc(-c2n[nH]c(=S)n2C(C)C2CC3CCC2C3)cc1` (stereo not drawn), for which the “fluorescence ratio, lower = inhibition” value is “inactive”.

With `CCOc1ccccc1NC(=O)c1cccc(NC(=O)c2ccccc2C(F)(F)F)c1`, the “fluorescence ratio, lower = inhibition” value is “inactive”.

Take `Cc1cccc(C(=O)Nc2cccc(NC(=O)c3ccc(N(C)C)cc3)c2)c1`: the “fluorescence ratio, lower = inhibition” value is “inactive”.

`COc1ccccc1-c1n[nH]c(=S)n1C(C)C1CC2CCC1C2` (stereo not drawn): the “fluorescence ratio, lower = inhibition” value was “inactive”.

Take `Cc1cccc(C(=O)Nc2cccc(NC(=O)c3ccccc3OC(F)(F)F)c2)c1`: the “fluorescence ratio, lower = inhibition” value was “inactive”.

Take `CCOc1ccccc1NC(=O)c1cccc(NC(=O)c2ccccc2)c1`: the “fluorescence ratio, lower = inhibition” value is “inactive”.

As for `O=C(Nc1cccc(NC(=O)c2ccco2)c1)c1ccccc1`, the “fluorescence ratio, lower = inhibition” value was “inactive”.

In the case of `CC(C1CC2CCC1C2)n1c(-c2cccc(Cl)c2)n[nH]c1=S` (stereo not drawn), the “fluorescence ratio, lower = inhibition” value is “inactive”.

Turning to `COc1ccccc1NC(=O)c1cccc(NC(=O)c2ccccc2C(F)(F)F)c1`, the “fluorescence ratio, lower = inhibition” value was “inactive”.

Consider `CC(C1CC2CCC1C2)n1c(-c2ccoc2)n[nH]c1=S` (stereo not drawn), for which the “fluorescence ratio, lower = inhibition” value was “inactive”.

Take `CCOc1ccccc1NC(=O)c1cccc(NC(=O)c2ccc(C(F)(F)F)cc2)c1`: the “fluorescence ratio, lower = inhibition” value was “inactive”.

In the case of `COc1cccc(-c2n[nH]c(=S)n2C(C)C2CC3CCC2C3)c1` (stereo not drawn), the “fluorescence ratio, lower = inhibition” value was “inactive”.

As for `CCOc1ccccc1NC(=O)c1cccc(NC(=O)c2cccc(C(F)(F)F)c2)c1`, the “fluorescence ratio, lower = inhibition” value was “inactive”.

For the compound `CC(C)n1c(-c2ccco2)n[nH]c1=S`, the “fluorescence ratio, lower = inhibition” value was “inactive”.

Turning to `Cc1cccc(C(=O)Nc2cccc(NC(=O)c3ccccc3Cl)c2)c1`, the “fluorescence ratio, lower = inhibition” value is “inactive”.

Take `COc1ccccc1C(=O)Nc1cccc(NC(=O)c2ccccc2OC)c1`: the “fluorescence ratio, lower = inhibition” value was “inactive”.

In the case of `O=C(Nc1ccccc1Cl)c1cccc(NC(=O)C2CCCC2)c1`, the “fluorescence ratio, lower = inhibition” value was “inactive”.

As for `Cc1cccc(C(=O)Nc2cccc(NC(=O)c3ccco3)c2)c1`, the “fluorescence ratio, lower = inhibition” value was “inactive”.

On to `COc1ccccc1NC(=O)c1cccc(NC(=O)CC2CCCC2)c1`, for which the “fluorescence ratio, lower = inhibition” value is “inactive”.

As for `CCOc1ccccc1C(=O)Nc1cccc(NC(=O)c2ccccc2OC)c1`, the “fluorescence ratio, lower = inhibition” value is “inactive”.

With `CCOc1ccccc1NC(=O)c1cccc(NC(=O)c2ccccc2OC)c1`, the “fluorescence ratio, lower = inhibition” value was “inactive”.

Take `CCOc1ccccc1C(=O)Nc1cccc(NC(=O)c2ccccc2C(F)(F)F)c1`: the “fluorescence ratio, lower = inhibition” value is “inactive”.

Turning to `Cc1cccc(C(=O)Nc2cccc(NC(=O)C3CCCCC3)c2)c1`, the “fluorescence ratio, lower = inhibition” value was “inactive”.

As for `S=c1[nH]nc(-c2ccco2)n1CC1CCCCC1`, the “fluorescence ratio, lower = inhibition” value is “inactive”.

Take `Cc1cccc(C(=O)Nc2cccc(NC(=O)c3cccs3)c2)c1`: the “fluorescence ratio, lower = inhibition” value is “inactive”.

With `CCOc1ccccc1NC(=O)c1cccc(NC(=O)C2CCOC2)c1` (stereo not drawn), the “fluorescence ratio, lower = inhibition” value is “inactive”.

Consider `COc1ccccc1C(=O)Nc1cccc(NC(=O)c2ccccc2)c1`, for which the “fluorescence ratio, lower = inhibition” value was “inactive”.

As for `O=C(Nc1cccc(NC(=O)c2ccccc2Cl)c1)c1ccccc1`, the “fluorescence ratio, lower = inhibition” value was “inactive”.

With `COc1cccc(OC)c1C(=O)Nc1cccc(NC(=O)c2cccc(C)c2)c1`, the “fluorescence ratio, lower = inhibition” value is “inactive”.

Turning to `CC(C1CC2CCC1C2)n1c(-c2ccc(Cl)cc2)n[nH]c1=S` (stereo not drawn), the “fluorescence ratio, lower = inhibition” value was “inactive”.

For the compound `O=C(Nc1cccc(NC(=O)c2ccc(Cl)cc2)c1)c1ccccc1`, the “fluorescence ratio, lower = inhibition” value is “inactive”.

Regarding `COc1ccccc1NC(=O)c1cccc(NC(=O)C2CCCCC2)c1`, the “fluorescence ratio, lower = inhibition” value was “inactive”.

Consider `O=C(Nc1cccc(NC(=O)c2ccsc2)c1)c1ccccc1`, for which the “fluorescence ratio, lower = inhibition” value is “inactive”.

On to `CC(c1ccco1)n1c(-c2ccoc2)n[nH]c1=S` (stereo not drawn), for which the “fluorescence ratio, lower = inhibition” value is “inactive”.

In the case of `COc1ccc(C(=O)Nc2cccc(NC(=O)c3cccc(C)c3)c2)cc1`, the “fluorescence ratio, lower = inhibition” value is “inactive”.

As for `CCOc1ccccc1NC(=O)c1cccc(NC(=O)C2CCCO2)c1` (stereo not drawn), the “fluorescence ratio, lower = inhibition” value is “inactive”.

Take `CCOc1ccccc1NC(=O)c1cccc(NC(=O)C2CCCCC2)c1`: the “fluorescence ratio, lower = inhibition” value is “inactive”.

Consider `COc1ccccc1C(=O)Nc1cccc(NC(=O)c2cccc(C)c2)c1`, for which the “fluorescence ratio, lower = inhibition” value is “inactive”.

Consider `Cc1cccc(C(=O)Nc2cccc(NC(=O)c3ccccc3C)c2)c1`, for which the “fluorescence ratio, lower = inhibition” value was “inactive”.

For the compound `Cc1cccc(C(=O)Nc2cccc(NC(=O)c3ccncc3)c2)c1`, the “fluorescence ratio, lower = inhibition” value was “inactive”.

Consider `CCOc1ccccc1NC(=O)c1cccc(NC(=O)c2ccc(OC)cc2)c1`, for which the “fluorescence ratio, lower = inhibition” value was “inactive”.

In the case of `CCOc1ccccc1NC(=O)c1cccc(NC(=O)C(C)(C)C)c1`, the “fluorescence ratio, lower = inhibition” value is “inactive”.

As for `CCOc1ccccc1NC(=O)c1cccc(C(=O)NC2CCCC2)c1`, the “fluorescence ratio, lower = inhibition” value was “inactive”.

For the compound `CCOc1ccccc1NC(=O)c1cccc(NC(=O)c2ccccc2C)c1`, the “fluorescence ratio, lower = inhibition” value is “inactive”.

On to `Cc1cccc(C(=O)Nc2cccc(NC(=O)c3ccc(Cl)cc3)c2)c1`, for which the “fluorescence ratio, lower = inhibition” value is “inactive”.

For the compound `O=C(Nc1cccc(NC(=O)c2ccc(F)cc2)c1)c1ccccc1`, the “fluorescence ratio, lower = inhibition” value was “inactive”.

Take `O=C(Nc1cccc(NC(=O)c2ccc(C(F)(F)F)cc2)c1)c1ccccc1`: the “fluorescence ratio, lower = inhibition” value was “inactive”.

For `CC(C1CC2CCC1C2)n1c(-c2ccsc2)n[nH]c1=S` (stereo not drawn), the “fluorescence ratio, lower = inhibition” value was “inactive”.

Consider `Cc1ccc(C(=O)Nc2cccc(NC(=O)c3ccccc3)c2)cc1`, for which the “fluorescence ratio, lower = inhibition” value is “inactive”.

Regarding `COc1ccccc1NC(=O)c1cccc(NC(=O)c2ccccc2)c1`, the “fluorescence ratio, lower = inhibition” value is “inactive”.

In the case of `O=C(Nc1cccc(NC(=O)c2cccc(C(F)(F)F)c2)c1)c1ccccc1`, the “fluorescence ratio, lower = inhibition” value is “inactive”.

For `Cc1ccccc1C(=O)Nc1cccc(NC(=O)c2ccccc2)c1`, the “fluorescence ratio, lower = inhibition” value was “inactive”.

On to `CCOc1ccccc1NC(=O)c1cccc(NC(=O)c2ccccc2OC(F)(F)F)c1`, for which the “fluorescence ratio, lower = inhibition” value is “inactive”.

Turning to `Cc1cccc(C(=O)Nc2cccc(NC(=O)c3cccc(C(F)(F)F)c3)c2)c1`, the “fluorescence ratio, lower = inhibition” value was “inactive”.

Consider `COc1cccc(C(=O)Nc2cccc(NC(=O)c3ccccc3)c2)c1`, for which the “fluorescence ratio, lower = inhibition” value was “inactive”.

Still in this experiment, the particulars now being: hERG-expressing cells, FluxOR thallium flux fluorescence; test wells contain dofetilide at its IC70.
In the case of `Cc1cccc(C(=O)Nc2cccc(NC(=O)c3ccccc3)c2)c1`, the IC50 was 8.08 µM.
